Measurements taken from patent US20250195510A1, “NOVEL METHODS” (priority 2022, published 2025).

Experiments:
[1] = test system: hippocampal gene expression (NanoString gene sets); assay: NanoString nCounter hippocampal gene expression after coinjection of LPS and lumateperone; type: in vivo, mouse
From the text: NanoString. The mouse neuropathology panel includes 770 genes associated with themes of neurotransmission, neuron-glia interaction, neuroplasticity, cell structure integrity, neuroinflammation and metabolism. A total of 13 housekeeping genes are used for expression normalization (Aars: NM_146217.4, Asb10: NM_080444.4, Ccdc127: NM_024201.3, Cnot10: NM_153585.5, Csnk2a2: NM_009974.3, Fam104a: NM_138598.5, Gusb: NM_010368.1, Lars: NM_134137.2, Mtol: NM_026658.2, Supt7l: NM_028150.1, Tada2b: NM_001170454.1:3224, Tbp: NM_013684.3:70, and Xpnpepl: NM_133216.3:1826, see FIG. 1-1). Hippocampal RNA is extracted using the Qiagen microkit (Qiagen) and is evaluated by the Agilent 2100 Bioanalyzer (Agilent Technologies, Santa Clara, CA) to assess RNA concentration, quality, and integrity. Sample preparation, hybridization, and detection (100 ng per sample, n=5-6 per group) are carried out according to NanoString manufacturer's instructions (NanoString Technologies, Seattle, WA). The normalized data are transformed to log 2 score to express the fold change. NanoString results (raw and normalized counts) are derived from RCC files using the nSolver software (version 2.6; NanoString Technologies). A complementary gene software analysis tool, ROSALIND® Advanced Analysis Software (NanoString Technologies), is also used, which provides comprehensive free cloud-based data analysis for nCounter data by directly analyzing raw RCC files generated from NanoString. Data are imported into ROSALIND® Advanced Analysis Software for normalization, calculation of fold-changes, P values, identification of enriched pathways, and heatmaps.
The NanoString platform has been effectively used to quantitatively measure in vivo gene expression of target genes in several neuropathological mouse models.
It is calculated similarly to a unidirected global significance score, but it takes into account the sign of the t-statistic. Scores were calculated by nSolver software, using the control group as a reference.
Next, using ROSALIND® Advanced Analysis Software and a filter set to P<.

Sprague-Dawley rats = assay: Female urine sniffing test (FUST), LPS-induced anhedonia; type: in vivo, rat; settings: LPS 1 mg/kg SC
From the text: All other reagents are obtained in the highest purity available from Sigma-Aldrich (St. Louis, MO) unless otherwise noted. […] Sigma-Aldrich, ref #0127: B8) diluted in 0.9% injectable saline while control group animals receive injections of all vehicles matching the experimental conditions. […] Behavioral Evaluation. […] Reward Sniffing Test (also known also as female urine sniffing test (FUST)): In this anhedonia-based assay, rats are brought to a well-ventilated testing room under dim lighting. A sterile cotton-tipped applicator is attached to one wall in the home cage for 1 hour to habituate rats to this new object. For the 2 phases of the 5 minute test, rats are first exposed to a new cotton tip dipped in sterile water as a control that is removed at the end of the 5 minutes; 45 minutes later, another cotton tip previously dipped into fresh rat urine collected from females of the same strain is attached to the cage wall. Male behavior is video recorded and latency to first sniff of the cotton tip and total time spent sniffing the cotton-tipped applicator are determined. In a pilot study, a dose response curve is conducted with varying doses of LPS to select an optimal dose for inducing an anhedonic response in rats. […] SC). […] Control rats are administered saline instead of LPS and vehicle instead of lumateperone. Anhedonia is assessed using FUST (female urine sniffing test) and measuring latency to sniff the reward combined with time spent sniffing the reward. Latency sniffing water is used as a control. The results are shown in the table below (time in seconds) with outliers removed using the MAD Method: […]

[2] = Inflammation gene, LPS 500 μg/kg + Luma 3 mg/kg, 2 h
[3] = Microglia gene, LPS 500 μg/kg + Luma 3 mg/kg, 2 h
[4] = Neuroprotect gene, LPS 500 μg/kg + Luma 3 mg/kg, 2 h

CN1CCN2c3c(cccc31)[C@@H]1CN(CCCC(=O)c3ccc(F)cc3)CC[C@@H]12 [Lumateperone, 4-((6bR,10aS)-3-methyl-2,3,6b,9,10,10a-hexahydro-1H-pyrido[3′,4′: 4,5]pyrrolo[1,2,3-de]quinoxaline-8 (7H)-yl)-1-(4-fluorophenyl)-1-butanone]
Casp4 hippocampal expression, Log2, LPS + Luma vs LPS [1, 2]: −2.24 | Ccr2 hippocampal expression, Log2, LPS + Luma vs LPS [1, 2]: −1.71 | Ikbkb hippocampal expression, Log2, LPS + Luma vs LPS [1, 2]: −0.132 | Il1b hippocampal expression, Log2, LPS + Luma vs LPS [1, 2]: −1.42 | Il1r1 hippocampal expression, Log2, LPS + Luma vs LPS [1, 2]: −0.309 | Lrg1 hippocampal expression, Log2, LPS + Luma vs LPS [1, 2]: −1.67 | Ly6a hippocampal expression, Log2, LPS + Luma vs LPS [1, 2]: −0.925 | Myd88 hippocampal expression, Log2, LPS + Luma vs LPS [1, 2]: −0.433 | Nfkb2 hippocampal expression, Log2, LPS + Luma vs LPS [1, 2]: −0.972 | Osmr hippocampal expression, Log2, LPS + Luma vs LPS [1, 2]: −1.21 | Socs3 hippocampal expression, Log2, LPS + Luma vs LPS [1, 2]: −1.57 | Tnfrsf1a hippocampal expression, Log2, LPS + Luma vs LPS [1, 2]: −0.434 | Tnfrsf1b hippocampal expression, Log2, LPS + Luma vs LPS [1, 2]: −0.31 | Directed global significance score vs control group, gene set Oligodendrocyte function ([1]; LPS 500 μg/kg + Luma 3 mg/kg coinjected, 2 h, LPS alone 0.181): 0.48 | Directed global significance score vs control group, gene set Insulin signaling ([1]; LPS 500 μg/kg + Luma 3 mg/kg coinjected, 2 h, LPS alone 0.28): 0.809 | Directed global significance score vs control group, gene set Epigenetic regulation ([1]; LPS 500 μg/kg + Luma 3 mg/kg coinjected, 2 h, LPS alone 0.312): 0.892 | Directed global significance score vs control group, gene set Microglia function ([1]; LPS 500 μg/kg + Luma 3 mg/kg coinjected, 2 h, LPS alone 0.377): 0.915 | Directed global significance score vs control group, gene set Cellular stress ([1]; LPS 500 μg/kg + Luma 3 mg/kg coinjected, 2 h, LPS alone 0.499): 0.813 | Directed global significance score vs control group, gene set Carbohydrate metabolism ([1]; LPS 500 μg/kg + Luma 3 mg/kg coinjected, 2 h, LPS alone 0.507): 0.668 | Directed global significance score vs control group, gene set Adaptive immune response ([1]; LPS 500 μg/kg + Luma 3 mg/kg coinjected, 2 h, LPS alone 0.571): 0.938 | Directed global significance score vs control group, gene set DNA damage ([1]; LPS 500 μg/kg + Luma 3 mg/kg coinjected, 2 h, LPS alone 0.578): 0.042 | Directed global significance score vs control group, gene set Autophagy ([1]; LPS 500 μg/kg + Luma 3 mg/kg coinjected, 2 h, LPS alone 0.588): 0.548 | Directed global significance score vs control group, gene set Growth factor signaling ([1]; LPS 500 μg/kg + Luma 3 mg/kg coinjected, 2 h, LPS alone 0.76): 0.698 | Directed global significance score vs control group, gene set Notch ([1]; LPS 500 μg/kg + Luma 3 mg/kg coinjected, 2 h, LPS alone 0.876): 1.05 | Directed global significance score vs control group, gene set Apoptosis ([1]; LPS 500 μg/kg + Luma 3 mg/kg coinjected, 2 h, LPS alone 0.915): −0.453 | Directed global significance score vs control group, gene set Innate immune response ([1]; LPS 500 μg/kg + Luma 3 mg/kg coinjected, 2 h, LPS alone 0.939): −0.655 | Directed global significance score vs control group, gene set Cytokine signaling ([1]; LPS 500 μg/kg + Luma 3 mg/kg coinjected, 2 h, LPS alone 0.993): −0.599 | Directed global significance score vs control group, gene set Inflammatory signaling ([1]; LPS 500 μg/kg + Luma 3 mg/kg coinjected, 2 h, LPS alone 1.086): −0.93 | Directed global significance score vs control group, gene set NF-kB ([1]; LPS 500 μg/kg + Luma 3 mg/kg coinjected, 2 h, LPS alone 1.215): −0.689 | Directed global significance score vs control group, gene set Astrocyte function ([1]; LPS 500 μg/kg + Luma 3 mg/kg coinjected, 2 h, LPS alone 1.391): −0.308 | Directed global significance score vs control group, gene set Angiogenesis ([1]; LPS 500 μg/kg + Luma 3 mg/kg coinjected, 2 h, LPS alone −0.144): 0.891 | Directed global significance score vs control group, gene set Cell cycle ([1]; LPS 500 μg/kg + Luma 3 mg/kg coinjected, 2 h, LPS alone −0.148): 0.385 | Directed global significance score vs control group, gene set Lipid metabolism ([1]; LPS 500 μg/kg + Luma 3 mg/kg coinjected, 2 h, LPS alone −0.192): 0.89 | Directed global significance score vs control group, gene set Neurons and neurotransmission ([1]; LPS 500 μg/kg + Luma 3 mg/kg coinjected, 2 h, LPS alone −0.422): 0.979 | Directed global significance score vs control group, gene set Wnt ([1]; LPS 500 μg/kg + Luma 3 mg/kg coinjected, 2 h, LPS alone −0.476): 1.186 | Directed global significance score vs control group, gene set Matrix remodeling ([1]; LPS 500 μg/kg + Luma 3 mg/kg coinjected, 2 h, LPS alone −0.583): 0.447 | genes that promote inflammation (e.g., Osmr, Tnfrsf1a, Tnfrsf11b, Prl, Il1r1), ROSALIND analysis ([1]; LPS+Luma versus LPS alone, filter P<.04999): significantly downregulates | Directed global significance score vs control group, gene set Adaptive immune response ([1]; Luma alone): 0.344 | Directed global significance score vs control group, gene set Angiogenesis ([1]; Luma alone): 0.616 | Directed global significance score vs control group, gene set Apoptosis ([1]; Luma alone): −0.442 | Directed global significance score vs control group, gene set Astrocyte function ([1]; Luma alone): −0.837 | Directed global significance score vs control group, gene set Autophagy ([1]; Luma alone): −0.731 | Directed global significance score vs control group, gene set Carbohydrate metabolism ([1]; Luma alone): −0.837 | Directed global significance score vs control group, gene set Cell cycle ([1]; Luma alone): −0.75 | Directed global significance score vs control group, gene set Cellular stress ([1]; Luma alone): −0.432 | Directed global significance score vs control group, gene set Cytokine signaling ([1]; Luma alone): −0.543 | Directed global significance score vs control group, gene set DNA damage ([1]; Luma alone): −0.614 | Directed global significance score vs control group, gene set Epigenetic regulation ([1]; Luma alone): 0.729 | Directed global significance score vs control group, gene set Growth factor signaling ([1]; Luma alone): 0.226 | Directed global significance score vs control group, gene set Inflammatory signaling ([1]; Luma alone): −1.032 | Directed global significance score vs control group, gene set Innate immune response ([1]; Luma alone): −0.611 | Directed global significance score vs control group, gene set Insulin signaling ([1]; Luma alone): 0.858 | Directed global significance score vs control group, gene set Lipid metabolism ([1]; Luma alone): −0.818 | Directed global significance score vs control group, gene set Matrix remodeling ([1]; Luma alone): −0.4 | Directed global significance score vs control group, gene set Microglia function ([1]; Luma alone): 0.466 | Directed global significance score vs control group, gene set NF-kB ([1]; Luma alone): −0.499 | Directed global significance score vs control group, gene set Neurons and neurotransmission ([1]; Luma alone): 0.435 | Directed global significance score vs control group, gene set Notch ([1]; Luma alone): 0.834 | Directed global significance score vs control group, gene set Oligodendrocyte function ([1]; Luma alone): −1.176 | Directed global significance score vs control group, gene set Wnt ([1]; Luma alone): 0.9 | Cd36 hippocampal expression, Log2, LPS + Luma vs LPS [1, 3]: 0.332 | Cx3cr1 hippocampal expression, Log2, LPS + Luma vs LPS [1, 3]: 0.231 | Maff hippocampal expression, Log2, LPS + Luma vs LPS [1, 3]: 1.21 | P2ry12 hippocampal expression, Log2, LPS + Luma vs LPS [1, 3]: 0.14 | Ptgs2 hippocampal expression, Log2, LPS + Luma vs LPS [1, 3]: −0.358 | Tmem100 hippocampal expression, Log2, LPS + Luma vs LPS [1, 3]: 0.186 | Tmem144 hippocampal expression, Log2, LPS + Luma vs LPS [1, 3]: 0.227 | Cldn5 hippocampal expression, Log2, LPS + Luma vs LPS [1, 4]: 0.812 | Egr1 hippocampal expression, Log2, LPS + Luma vs LPS [1, 4]: 0.87 | Fos hippocampal expression, Log2, LPS + Luma vs LPS [1, 4]: 2.27 | Ngf hippocampal expression, Log2, LPS + Luma vs LPS [1, 4]: 0.126 | Vegfa hippocampal expression, Log2, LPS + Luma vs LPS [1, 4]: 0.227 | FUST Time sniffing reward (Sprague-Dawley rats; Luma 1 mg/kg IP 24 h before and 24 h after LPS, control 16.99, LPS + Vehicle 11.11): 17.38 s | FUST Latency sniffing reward (Sprague-Dawley rats; Luma 1 mg/kg IP 24 h before and 24 h after LPS, control 28.00, LPS + Vehicle 164.2): 68.13 s | FUST Latency sniffing water (Sprague-Dawley rats; control test, Luma 1 mg/kg IP before and after LPS, control 190.56, LPS + Vehicle 274.27): 207.60 s
